# Results published in PubChem BioAssay AID1996.
# Settings: buffer; pH 7.4; 200.0 µM
row,SMILES,solubility kinetic
1,Cc1ccc2c(CN3CCCCC3CCO)cc(=O)oc2c1 (stereo not given),39.4 µg/mL
2,CCOC(=O)Cc1csc(NC(=O)c2ccc([N+](=O)[O-])cc2[N+](=O)[O-])n1,> 57 µg/mL
3,COc1cc(C(=O)OCC(C)=O)c([N+](=O)[O-])cc1OC,> 42.5 µg/mL
4,O=C(OCc1cnc(Cl)s1)c1c(F)cccc1F,21.5 µg/mL
5,O=C(NCc1cccnc1)c1nn2cccnc2c1Cl,> 43.2 µg/mL
6,CCCC(=O)Nc1ccc(-c2csc(-c3cccnc3)n2)cc1,0.7 µg/mL
7,Cc1ccc(-n2c(C)c([N+](=O)[O-])c3ccc(O)cc32)cc1,0.4 µg/mL
8,O=C(c1ccncc1)N1CCc2ccccc2C1,> 35.7 µg/mL
9,Cc1ccc(NC(=O)c2cccc3cccnc23)cc1,6.7 µg/mL
10,Cc1noc(C)c1COc1ccc(C(=O)N2CCN(S(=O)(=O)c3cccc(F)c3)CC2)cc1,25.1 µg/mL
11,COCC(C)n1c(SCC(=O)NC(=O)NCc2ccccc2)nc2ccccc2c1=O (stereo not given),2.7 µg/mL
12,C/C(=N/O)c1no[n+]([O-])c1/C(C)=N\O,> 30 µg/mL
13,Cc1cccn2c(=O)c3cc(C(=O)N4CCCCC4C)sc3nc12 (stereo not given),13.1 µg/mL
14,Cc1cccc[n+]1CC(=O)c1ccc(Cl)cc1.[Cl-],32.9 µg/mL
15,CCC(=O)Nc1ccc(-c2ccc(N3CCN(C)CC3)nn2)cc1,> 48.8 µg/mL
16,Cc1ccc(NC(=S)NCCCN2CCOCC2)cc1C,> 46.1 µg/mL
17,COc1ccc(OC)c(NC(=O)COC(=O)CCS(=O)(=O)c2ccc(Cl)cc2)c1,27.5 µg/mL
18,Cc1nc2cc(NC(=O)N3CCCC3)ccc2n1C,29.4 µg/mL
19,COc1ccc(NC(=O)Oc2ccccc2)cc1Cl,18.4 µg/mL
20,CCCCN(C)C(=O)c1nc2ccccn2c1CN1CCSCC1,48.3 µg/mL
21,O=S(=O)(CCN1CCSCC1)c1ccccc1,34.7 µg/mL
22,N#Cc1c(-c2ccccc2)cc(-c2ccc(O)cc2)nc1N,< 0.2 µg/mL
23,O=C(CCCN1CC=C(n2c(=O)[nH]c3ccccc32)CC1)c1ccc(F)cc1,33.4 µg/mL
24,C/C(N)=C(/C#N)C(=O)COC(=O)c1cc2c(s1)CCC(C)C2 (stereo not given),4.7 µg/mL

row,SMILES,solubility kinetic
1,O=S(=O)(c1ccc2ccccc2c1)N1CCNCC1,32.7 µg/mL
2,Cc1cccc(NC(=O)COC(=O)c2cc3ccccc3oc2=O)c1,< 0.7 µg/mL
3,CCOC(=O)Cn1cc(C#N)c2cccc(CC)c21,35.3 µg/mL
4,Cn1c(C(=O)c2ccccc2)nc2ccccc21,24 µg/mL
5,N#Cc1cccc(C(=O)OCC(=O)NCc2ccco2)c1,31.2 µg/mL
6,O=C(NC(=O)N1CCC2(CC1)OCCO2)c1ccc(Cl)cc1,> 48.7 µg/mL
7,CN1c2ccccc2C(=O)/C(=C\Nc2ncccn2)S1(=O)=O,2.8 µg/mL
8,Cc1ccc(N2CC(O)Cn3c2nc2c3c(=O)n(C)c(=O)n2C)cc1 (stereo not given),24.5 µg/mL
9,N/C(=N\OC(=O)c1ccc(F)cc1)c1cccc([N+](=O)[O-])c1,2.3 µg/mL
10,O=C(CCl)N1CCN(C(=O)C2COc3ccccc3O2)CC1 (stereo not given),> 48.7 µg/mL
11,Cc1ccc(S(=O)(=O)NCCCn2ccnc2)cc1C(=O)NC(C)C,> 54.7 µg/mL
12,CC1CCN(C(=O)CSc2nc3ncccc3[nH]2)CC1,> 43.6 µg/mL
13,Cl.O=C(O)CSc1nc(-c2ccccc2)c(-c2ccccc2)[nH]1,> 52 µg/mL
14,O=C(CN1CCCCCC1)NCc1ccccc1,34.8 µg/mL
15,COc1ccc(NC(=O)N2CCOCC2)cc1,> 35.4 µg/mL
16,Cc1cccn2c(=O)c3cc(C(=O)NC4CCCCC4)c(=N)n(CCN4CCOCC4)c3nc12,52.2 µg/mL
17,O=C(Nc1ccc(F)cc1)C1CC(=O)N(Cc2ccco2)C1 (stereo not given),> 45.3 µg/mL
18,COc1ccc(NC(=O)CS(=O)c2ccc(F)cc2)cc1 (stereo not given),> 46.1 µg/mL
19,CCOc1cc2c(cc1/C=C/c1noc(C)c1[N+](=O)[O-])OC(C)C2 (stereo not given),< 0.4 µg/mL
20,COC(=O)C(O)(c1ccc(NC(=O)c2ccccc2)cc1)C(F)(F)F (stereo not given),42.9 µg/mL
21,Cn1c(=O)c2c(O)c(C=NCc3ccccc3)c(=O)n(C)c2n(C)c1=O,51.3 µg/mL
22,CN(Cc1nc(-c2ccccc2)no1)C(=O)c1ccco1,> 42.5 µg/mL
23,COC(=O)c1ccccc1NC(=O)c1cc(-c2ccco2)on1,0.6 µg/mL
24,O=C(Nc1ccccn1)c1ccc(Cl)s1,30.9 µg/mL

row,SMILES,solubility kinetic
1,CCCOc1ccc(C(=O)NCCC(=O)NCCCC(=O)O)cc1,> 50.5 µg/mL
2,OC1(C#CCN2CCCC2)c2ccccc2-c2ccccc21,11.4 µg/mL
3,Cc1cccc2c(=O)cc(C)n(CC(N)=O)c12,> 34.5 µg/mL
4,Cc1nn(C)c(Oc2ccccc2)c1CCNC(=O)CCl,> 46.2 µg/mL
5,COc1cccc(NC(=O)C2CCOC2=O)c1 (stereo not given),> 35.3 µg/mL
6,CCC(C(=O)NCCc1ccc(S(N)(=O)=O)cc1)c1ccccc1 (stereo not given),> 52 µg/mL
7,CC1CC(C)CN(C(=O)CSc2ncnc3sccc23)C1 (stereo not given),17.1 µg/mL
8,CCOC(=O)c1ccc(NC(=O)C2CC(O)CN2S(=O)(=O)c2ccc(C)cc2)cc1 (stereo not given),> 64.9 µg/mL
9,COc1cc(/C=C2\SC(N)=NC2=O)cc(OC)c1,3.8 µg/mL
10,CCOC(=O)C1=C(C)OC(N)=C(C#N)C1c1cccc(C)c1 (stereo not given),43.7 µg/mL
11,Cc1ccc(O)c(Nc2c3ccccc3nc3ccccc23)c1,1.5 µg/mL
12,FC(F)(F)c1ccc(NC2=NCCC2)cc1,> 34.2 µg/mL
13,N#Cc1nc(-c2ccc(F)cc2)oc1NCCCn1ccnc1,2.5 µg/mL
14,CC(C)(C)c1nc2cc(Cl)c([N+](=O)[O-])cc2o1,6.5 µg/mL
15,CCc1ccc(OCCCC(=O)Nc2cccc(C(=O)O)c2)cc1,> 49.1 µg/mL
16,COc1ccc(OC)c(S(=O)(=O)N2CCN3CCCC3C2)c1 (stereo not given),> 49 µg/mL
17,O=Cc1c(Cl)nc2ccccn2c1=O,> 31.3 µg/mL
18,O=C1Nc2ccccc2N=C(c2ccccc2)c2ccccc21,0.9 µg/mL
19,Cl.OCCNc1nc(N2CCCCC2)nc2ccccc12,> 46.3 µg/mL
20,CCNc1nc(NC(C)C)nc(N(C#N)C(C)C(=O)N(CC)CC)n1 (stereo not given),> 52.3 µg/mL
21,CC1Cc2ccccc2N1C(=O)C1CC(=O)N(c2ccccc2)C1 (stereo not given),44.9 µg/mL
22,Cc1ccc(/C=C/C(=O)O)cc1S(=O)(=O)N1CCC(Cc2ccccc2)CC1,53.2 µg/mL
23,COc1ccc2c(c1)c(-c1csc(N)n1)c(C)n2C,27.7 µg/mL
24,Cc1ccc(CNC(=O)C(CC(C)C)OC(=O)c2ccco2)cc1 (stereo not given),11.2 µg/mL

row,SMILES,solubility kinetic
1,CCOC(=O)c1c(N)c2cc([N+](=O)[O-])cnc2n1C,1.9 µg/mL
2,COc1ccc(/C=C2\SC(N)=NC2=O)cc1Br,5.3 µg/mL
3,CCOc1ccccc1/C=C(\C#N)C1=CCCC1,> 35.9 µg/mL
4,Cn1c(=O)c2c(ncn2CC(=O)Nc2cc(S(=O)(=O)N3CCCCC3)ccc2Cl)n(C)c1=O,10.5 µg/mL
5,NS(=O)(=O)c1ccc(CNC(=O)/C=C/c2cccc([N+](=O)[O-])c2)cc1,14.2 µg/mL
6,O=C(O)C(Cc1ccccc1)N=C(NS(=O)(=O)c1ccccc1)c1ccccc1 (stereo not given),> 61.3 µg/mL
7,Cc1ccccc1OCC(O)CN1C(=O)c2ccccc2C1=O (stereo not given),41.7 µg/mL
8,CSc1ncccc1C(=O)OCC(=O)Nc1ccc2c(c1)OCO2,2.7 µg/mL
9,CC(=O)Nc1ccc(NC(=O)COC(=O)COc2ccc3ccccc3c2)cc1,9.7 µg/mL
10,COc1ccc(C(=O)OCC(=O)N2CCN(C(=O)c3ccco3)CC2)cc1OC,> 60.4 µg/mL
11,COc1ccc(NC(=O)CNc2ccc(C#N)cc2)cc1,> 42.2 µg/mL
12,Cn1c(Nc2ccccc2)nc2ccccc21,25.9 µg/mL
13,Cc1ccc(-n2nc(C)cc2NC(=O)CC#N)cc1,> 38.1 µg/mL
14,Cc1ccnc(NC(=O)COc2ccc(Cl)cc2)n1,9.7 µg/mL
15,COc1cccc(COC(=O)Nc2ccccc2F)c1,18.9 µg/mL
16,O=C(/C=C/c1ccco1)OCC(=O)N1CCCCC1,> 39.5 µg/mL
17,Cc1cc(C)n2nc(SCC(=O)N3CC(C)CC(C)C3)nc2n1 (stereo not given),> 50 µg/mL
18,O=C1CC(N2CCSCC2)C(=O)N1c1ccc(F)cc1 (stereo not given),> 44.2 µg/mL
19,CN1CCN(S(=O)(=O)c2ccccc2)C(c2ccccc2)C1 (stereo not given),44.2 µg/mL
20,Cc1[nH]c2ccccc2c1C(=O)COc1ccccc1F,1.6 µg/mL
21,CSc1ccccc1NC(=O)c1cc(-c2ccco2)on1,1.1 µg/mL
22,CCCCNC(=O)N1CCCN(c2ccc(C#N)cn2)CC1,> 45.2 µg/mL
23,S=c1[nH]c2cnccc2n1Cc1ccccc1,5.7 µg/mL
24,O=C(COC(=O)C1=Cc2ccccc2OC1)NCc1ccco1,5.6 µg/mL

row,SMILES,solubility kinetic
1,Cc1ccsc1CNS(=O)(=O)c1ccc(F)cc1,30 µg/mL
2,CCOc1ccccc1NC(=S)NC(=O)C1CC1,2.6 µg/mL
3,O=C(Nc1ccccc1F)c1ccc2c(c1)OCO2,> 38.9 µg/mL
4,CC(=O)N[C@@H](CS)C(=O)O,> 24.5 µg/mL
5,CC(C)(C)C(=O)Nc1cccc(-c2ncon2)c1,> 36.8 µg/mL
6,C=CC[n+]1c(C)csc1Nc1cccc(Br)c1.[Br-],3.3 µg/mL
7,Cc1nc2ccc(C(=O)Nc3ccccc3Cl)cc2s1,14.2 µg/mL
8,Cn1cccc1C1CCCN1CC(=O)Nc1ccc(C#N)c(Cl)c1 (stereo not given),12.3 µg/mL
9,O=C(NCCc1ccc(Cl)cc1)C(=O)c1c[nH]c2ccccc12,2.1 µg/mL
10,CN1C(=O)NC(=O)/C(=C/c2ccc(C(=O)O)cc2)C1=O,> 41.1 µg/mL
11,Cc1ccsc1C(=O)NC(C)c1ccccc1 (stereo not given),> 36.8 µg/mL
12,COc1ccc(-c2nc(NC(C)=O)sc2-c2ccccc2)cc1,4 µg/mL
13,COc1ccc(NC(=O)CSc2nc(C)cs2)c([N+](=O)[O-])c1,45.1 µg/mL
14,Cn1ncc2c(NCc3ccccc3)nc(NCCCO)nc21,> 46.9 µg/mL
15,Cc1ccc(CNc2nc(C)cs2)cc1,25.3 µg/mL
16,CCOC(=O)c1sc(CS(=O)(=O)c2ccc(Cl)cc2)nc1C,6.1 µg/mL
17,COc1cccc(NC(=O)C(=O)NCCc2ccc(F)cc2)c1,< 0.3 µg/mL
18,O=C(NC1CC1)C1CCCN1C(=O)NC1CCCCC1 (stereo not given),> 41.9 µg/mL
19,CCC/C(O)=C1\C(=O)CC(C)(C)CC1=Nc1ccc(OC)cc1,41.6 µg/mL
20,COc1cc(OC)c(S(=O)(=O)NC(C)C)cc1C(=O)O,> 45.5 µg/mL
21,Cc1ccc(NC(=O)C2CC(O)CN2C(=O)OCc2ccccc2)c(C)c1 (stereo not given),37.2 µg/mL
22,CN(C(=O)c1cc(-c2ccc3c(c2)OCO3)on1)c1ccccc1,6.8 µg/mL
23,Cc1ccc(C(=O)OC(C)CN2CCOCC2)cc1.Cl (stereo not given),38.9 µg/mL
24,CCOc1ccc(NC(=O)c2cccc(NC(=O)c3ccccc3)c2)cc1,0.8 µg/mL
